Results on 4 compounds are retold here after the Kinase Knowledgebase extract (Sharma et al. 2016).

In general, IC50 refers to the concentration that inhibits the measured activity by half.

≈ marks a conversion by molar mass, not a printed value. Bounds are passed on as bounds.

The target of test [1] is EGFR (human) (UniProt P00533).
Another test concerns the target EGFR (UniProt P00533).
Test [2] concerns the target EGFR (human) (UniProt P00533). The conditions noted are these: a2780s.
The target in test [3] is EGFR (human) (UniProt P00533). The conditions noted are these: mb435.
Test [4] deals with EGFR (human) (UniProt P00533). The conditions noted are these: a2780ddp.
In test [5] the target is EGFR (human) (UniProt P00533). To be noted: mcf-7.
Test [6] addresses EGFR (human) (UniProt P00533). The conditions noted are these: sw-620.
The target in test [7] is EGFR (human) (UniProt P00533). The conditions noted are these: lox.
The target in test [8] is EGFR (human) (UniProt P00533). To be noted: a431.
For test [9], the target named is EGFR (human) (UniProt P00533). To be noted: skbr3.

EGFR (human), sequence (P00533 whole entry, looked up): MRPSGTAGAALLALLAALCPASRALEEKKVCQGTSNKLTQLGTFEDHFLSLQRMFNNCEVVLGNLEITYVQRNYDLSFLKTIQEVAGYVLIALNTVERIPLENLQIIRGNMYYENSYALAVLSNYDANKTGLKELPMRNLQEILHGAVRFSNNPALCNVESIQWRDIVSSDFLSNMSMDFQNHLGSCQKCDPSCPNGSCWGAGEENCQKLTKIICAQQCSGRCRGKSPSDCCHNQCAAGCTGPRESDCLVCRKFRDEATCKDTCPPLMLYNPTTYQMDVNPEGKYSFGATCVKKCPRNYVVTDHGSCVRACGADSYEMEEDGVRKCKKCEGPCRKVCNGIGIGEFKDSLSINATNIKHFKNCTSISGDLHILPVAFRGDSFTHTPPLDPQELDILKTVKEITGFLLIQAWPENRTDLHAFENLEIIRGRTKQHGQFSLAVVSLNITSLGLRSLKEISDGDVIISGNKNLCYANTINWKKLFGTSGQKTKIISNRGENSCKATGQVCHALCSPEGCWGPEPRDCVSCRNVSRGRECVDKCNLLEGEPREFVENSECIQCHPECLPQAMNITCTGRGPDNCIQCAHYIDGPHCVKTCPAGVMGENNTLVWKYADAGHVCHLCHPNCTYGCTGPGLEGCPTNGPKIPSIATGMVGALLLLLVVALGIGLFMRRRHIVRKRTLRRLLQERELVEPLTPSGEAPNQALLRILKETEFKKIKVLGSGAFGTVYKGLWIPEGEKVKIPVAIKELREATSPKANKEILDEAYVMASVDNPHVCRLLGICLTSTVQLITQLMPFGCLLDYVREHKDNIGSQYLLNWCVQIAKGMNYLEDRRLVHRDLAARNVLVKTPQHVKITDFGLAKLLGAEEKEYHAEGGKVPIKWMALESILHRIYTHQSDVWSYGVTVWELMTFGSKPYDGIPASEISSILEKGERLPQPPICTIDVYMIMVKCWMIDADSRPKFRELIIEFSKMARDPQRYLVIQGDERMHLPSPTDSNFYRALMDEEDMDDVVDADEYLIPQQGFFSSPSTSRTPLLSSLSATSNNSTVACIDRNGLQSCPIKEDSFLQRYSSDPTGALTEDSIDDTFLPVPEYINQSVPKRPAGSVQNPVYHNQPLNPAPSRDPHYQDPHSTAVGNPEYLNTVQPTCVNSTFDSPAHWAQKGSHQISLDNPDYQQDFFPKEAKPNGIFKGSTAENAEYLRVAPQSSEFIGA
EGFR, sequence (P00533 whole entry, looked up): as above

For `CSSC(C)C(=O)Nc1ccc2ncnc(Nc3cccc(Br)c3)c2c1` (centres undefined), the IC50 at EGFR (human) [1] amounted to 0.84 nM.

Compound `O=C(/C=C/CBr)Nc1ccc2ncnc(Nc3cccc(Br)c3)c2c1` registered an IC50 at EGFR of 0.01 nM.

As for `C=C(CN1CCOCC1)C(=O)Nc1ccc2ncnc(Nc3cccc(Br)c3)c2c1`, the IC50 against EGFR was determined as 0.005 nM; against EGFR (human) [2], 0.8 µg/mL (≈ 1.71 µM); against EGFR (human) [3], 4.5 µg/mL (≈ 9.61 µM); on EGFR (human) [4] it was 4 µg/mL (≈ 8.54 µM); on EGFR (human) [5] it was 17 µg/mL (≈ 36.3 µM); against EGFR (human) [6] it was 5.5 µg/mL (≈ 11.7 µM). Further, the 50% inhibitory concentration (IC50) at EGFR (human) [7] was determined as 3.9 µg/mL (≈ 8.33 µM); against EGFR (human) [8], 0.6 µg/mL (≈ 1.28 µM).

Take `CCN(CC)C/C=C/C(=O)Nc1ccc2ncnc(Nc3cccc(Br)c3)c2c1`: the IC50 at EGFR was 0.075 nM; at EGFR (human) [2], 22 µg/mL (≈ 48.4 µM); against EGFR (human) [3] it was 45 µg/mL (≈ 99 µM); against EGFR (human) [4], 43 µg/mL (≈ 94.6 µM); at EGFR (human) [5], 59 µg/mL (≈ 130 µM); against EGFR (human) [6], 52 µg/mL (≈ 114 µM). Besides, the IC50 against EGFR (human) [7] was 46 µg/mL (≈ 101 µM); against EGFR (human) [8] it was 0.01 µg/mL (≈ 0.022 µM); at EGFR (human) [9], less than 0.01 µg/mL.
